The nature of data set [1]: Rescuing DMSO from damage attributed to the hydroxyl radical (Fenton reaction). It is filed as biochemical. The note with it: for Yield (%) or amount of product (Formaldehyde): substrate DMSO; for preventing oxidative damage / protection against metal-induced oxidation of substrates: summary of Table 3. An excerpt:
Corrole complexes were examined with respect to their efficiency of rescuing DMSO from damage attributed to the hydroxyl radical, formed via the Fenton reaction that also involves superoxide anion radical and hydrogen […]. It also mimics reaction occurring in biological systems that are exposed to metal toxicity, the situation that occurs in diseases caused by brain iron accumulation.

The subject of data set [2] is INS-1E cells. Nature of the data set: Protection of INS-1E beta cells against H2O2 toxicity. Format: cell-based, rat. The note with it: 20 and 50 μM, 30 min before increasing H2O2 concentrations, 24 h. As to the method:
Two insulin-secreting beta cell lines, rat insulinoma (INS-1E) and RIN-m cells, were used to examine the protective effect of corrole 1C-Fe. The cells were cultured at 37° C., in a humid 5% CO2, 95% air environment in regular RPMI-1640 medium (Invitrogen) supplemented with 5% fetal calf serum (FCS).
After 2 days of culture, INS-1E cells (5×10^4 cells/well in 96-well plates) were treated with corrole 1C-Fe (20 and 50 μM) added 30 minutes prior to treatment with increasing concentrations of H2O2 and then further incubated for 24 h.

The next data set has as its system clonal beta cell lines. Nature of the data set: Toxicity of corrole alone (without H2O2) on clonal beta cell lines. It is filed as cell-based. The note with it: without H2O2, concentrations up to 50 μM.
The test system of data set [3] is INS-1E cells. Nature of the data set: Protection of INS-1E cells against SIN-1 toxicity (MTT). The note with it: 10 μM, 30 min before SIN-1 (500 or 600 μM), 24 h. It is filed as cell-based, rat. As to the method: (§1) INS-1E cells or RIN-m cells were cultured in RPMI with low serum content (2% FCS), placed in microtiter plates (96 wells) at a density of 2.5×10^4 cells/well and allowed to attach for 24 h before treatment. Corroles 1C-Fe and 5C-Fe (10 μM) were added 30 min prior to insult with the nitric oxide donor SIN-1 (500 or 600 μM) for a subsequent 24 h period. Cell viability was evaluated by a colorimetric assay for mitochondrial function using 3-(4,5-dimethylthiazol-2-yl)-2,5-diphenyltetrazolium bromide (MTT test), and expressed as percentage of untreated control. Values higher than 100% reflect increased mitochondrial activity induced by the drug. The results represent the mean±SEM of three independent experiments performed under the same conditions.

The next data set relates to RIN-m cells. Nature of the data set: Protection of RIN-m cells against SIN-1 toxicity (MTT). Format: cell-based, rat. The note with it: 24 h; for protective effect against SIN-1 induced toxicity (MTT), comparative: 0.1-20 μM, 30 min before SIN-1 (800 μM). As to the method: as §1
Insulin-secreting RIN-m cells were incubated in RPMI with low serum content (2% FCS) and placed in microtiter plates (96 wells) at a density of 2.5×10^4 cells/well and allowed to attach for 24 h before treatment. Cells were treated with corroles 1C-Fe, 1C-Mn or 2C-Mn or porphyrins 1P-Fe or 2P-Mn, in various concentrations (0.1-20 μM), for 30 min prior to insult with SIN-1 (800 μM) for a subsequent 24 h period. Cell viability was evaluated by MTT test and expressed as percentage of untreated control.

The subject of the next data set is nitrotyrosine (Ntyr). Nature of the data set: SIN-1-induced cellular protein nitration, nitrotyrosine immunofluorescence in SH-SY5Y cells. It is filed as cell-based, human. The note with it: 20 μM corrole, SIN-1 700 μM, 24 h. As to the method: To determine the effect of the corroles on SIN-1-induced cellular protein nitration, SH-SY5Y neuroblastoma cells were treated with SIN-1 (700 μM) in the absence or presence of 20 μM of the corroles 1C-Fe, 2C-Mn, and 3C-Mn. Protein nitration was detected by immunofluorescence analysis using a monoclonal antibody against nitrotyrosine (Ntyr), a biological marker of peroxynitrite.

A short description of data set [4]: Peroxynitrite decomposition rates by manganese corroles (Example 2). It is filed as biochemical. The note with it: 385 μM peroxynitrite, pH 7.4, 25° C., absorbance at 302 nm; Table 2. As to the method: The investigations were performed by examining the decay of 385 μM peroxynitrite at pH 7.4 and 25° C. in the presence and absence of various amounts of Mn corrole catalysts 2C-Mn, 2C′-Mn, 2C″-Mn, 3C-Mn and 4C-Mn. The differences between 2C-Mn, 2C′-Mn, and 2C″-Mn is in the identity of the 10-aryl group, which is C6F5, para-anisyl, and phenyl, respectively. The results (one example using 4C-Mn is shown in FIG. 1) were obtained by monitoring changes in absorbance at 302 nm, the λmax of peroxynitrite. The catalytic performances of five of the above compounds were tested; and the thus elucidated kcat values are presented in Table 2. Importantly, in sharp contrast with the corroles, none of the structurally similar manganese (III) porphyrin complexes affected the decomposition of peroxynitrite by any extent (not shown).

A further data set deals with albumin (Homo sapiens, UniProt P02768). Nature of the data set: Binding of corrole complexes to albumin. Particulars: preliminary experiments. From the text:
Issues regarding biodistribution, transport mechanisms, accumulation in specific organs, and the eventual elimination of administered compounds are among the prime concerns when it comes to real life utilization of potential drugs. This can be addressed by several and quite different means, including in vitro, in vivo and ex-vivo examinations. One way to predict distribution is via examination of the binding of the corroles to circulating proteins that might act as transporters, similar to experiment performed previously by the inventors with metal complexes of corrole 1C (Scheme 1), which spontaneously form tightly bound non-covalent bioconjugates with HDL (Haber et al., 2007), albumin (Mahammed et al., 2004), and transferrin (Haber and Gross. 2007) (listed in increasing order of affinity), as well as with semi-synthetic proteins (Agadjanian et al., 2006). […] A more direct approach relies on the strong fluorescence of corroles that are not chelated by transition metals (no metal such as in corroles 1C and 2C, or using corrole Ga/Al complexes such as 1C-Ga). This feature is used for testing cell entry via confocal microscopy (Agadjanian et al., 2006), without the need of attaching a fluorescent tag. Furthermore, it may even be used for whole animal imaging purposes, as shown in Example 4 hereinabove. […]

The subject of another data set is SH-SY5Y cells. It is filed as cell-based. The note with it: up to 50 μM; data not shown.
[5] abbreviates: CuSO4/ascorbate, no additive 44 μM.
Where [6] appears, read: CuSO4/glutathione, no additive 11 μM.

“Also recorded” adds a separate entry of the source.

Chain of albumin (P02768 25-609): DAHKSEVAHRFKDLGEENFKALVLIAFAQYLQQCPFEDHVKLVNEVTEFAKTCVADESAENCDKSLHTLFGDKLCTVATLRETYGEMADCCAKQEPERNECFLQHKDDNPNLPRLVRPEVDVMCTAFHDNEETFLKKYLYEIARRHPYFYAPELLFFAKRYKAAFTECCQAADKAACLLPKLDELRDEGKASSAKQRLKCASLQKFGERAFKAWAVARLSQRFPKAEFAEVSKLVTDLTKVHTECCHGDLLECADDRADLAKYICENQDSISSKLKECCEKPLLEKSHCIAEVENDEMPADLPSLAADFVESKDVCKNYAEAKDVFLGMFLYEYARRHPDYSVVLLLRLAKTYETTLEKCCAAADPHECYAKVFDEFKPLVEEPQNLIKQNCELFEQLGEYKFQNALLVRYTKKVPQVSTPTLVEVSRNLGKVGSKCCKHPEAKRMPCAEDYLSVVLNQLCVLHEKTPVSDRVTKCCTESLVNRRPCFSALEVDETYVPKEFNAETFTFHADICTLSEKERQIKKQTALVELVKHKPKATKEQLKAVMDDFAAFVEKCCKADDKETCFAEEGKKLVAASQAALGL

In the case of `O=S(=O)(O)c1cc2[n]3c1C(c1c(F)c(F)c(F)c(F)c1F)=C1C=CC4=[N+]1[Fe-]31[n]3c(cc(S(=O)(=O)O)c3-2)C(c2c(F)c(F)c(F)c(F)c2F)=c2ccc([n]21)=C4c1c(F)c(F)c(F)c(F)c1F` (centres unmarked) [1C-Fe, 2,17-bis(sulfonato)-5,10,15-tris(pentafluorophenyl)-corrolato iron(III)], the “Yield (%) or amount of product (Formaldehyde)” value in data set [1] (setting [5]) and in data set [1] (setting [6]) was 0 µM in each case. Moreover, in [1], the “preventing oxidative damage / protection against metal-induced oxidation of substrates” value is reported as “very potent in preventing the oxidative damage”. The “protective effect against H2O2 toxicity” value in the data set with INS-1E cells [2] is “significant protective effect”. Besides, the “toxicity when given alone” value in the data set with clonal beta cell lines is reported as “shows no toxicity”. The “protective effect against SIN-1 induced toxicity (MTT)” value is “marked protective effect” with INS-1E cells [3] and “marked protective effect” in the data set on RIN-m cells (10 μM, 30 min before SIN-1 (500 or 600 μM)). In the data set with RIN-m cells, the “protective effect against SIN-1 induced toxicity (MTT), comparative” value is on record as “successful; also recorded: exhibits a greater protective effect”. The “nitrotyrosine (Ntyr) staining, SIN-1-induced” value in the data set with nitrotyrosine (Ntyr) was “partial (albeit quite remarkable) reduction in Ntyr staining”.

For the compound `C[n+]1ccc(C2=C3C=CC4=[N+]3[Mn-]35[n]6c2ccc6-c2ccc([n]23)C(c2cc[n+](C)cc2)=c2ccc([n]25)=C4c2c(F)c(F)c(F)c(F)c2F)cc1.[I-].[I-]` (centres unmarked) [2C-Mn, 5,15-bis(4-N-methyl-pyridilium)-10-pentafluorophenyl-corrolato manganese(III) diiodide salt], the “kcat, peroxynitrite decomposition rate” value in [4] was 150000 M⁻¹ s⁻¹. Further, the “Yield (%) or amount of product (Formaldehyde)” value turned out to be 7 µM in data set [1] (setting [5]) and 5 µM in [1] (setting [6]). Moreover, the “preventing oxidative damage / protection against metal-induced oxidation of substrates” value in [1] is “protect better than corrole 1C-Mn”. For the same compound, in the data set on RIN-m cells, the “protective effect against SIN-1 induced toxicity (MTT), comparative” value is listed as “successful; also recorded: unequivocally in favor of the former; also recorded: improved protective effect”. In addition, the “nitrotyrosine (Ntyr) staining, SIN-1-induced” value in the data set on nitrotyrosine (Ntyr) is given as “totally abolished”. Moreover, the binding to albumin entry on albumin is given as “do not bind to albumin”. Besides, in the data set on SH-SY5Y cells, the “preventing H2O2-mediated cytotoxicity” value was “not effective”.

The values are drawn from patent publication US20140045809A1, “CORROLES FOR NEUROPROTECTION AND NEURORESCUE” (priority 2008, published 2014).
